Test results: ChEMBL document CHEMBL3044789, “Comparing weed and crop seedling response to pre-emergence pendimethalin application in Corchorus olitorius and Abelmoschus esculentus” (Crop Prot, 2006)

What was measured:
Cyperus rotundus = assay: Herbicidal activity against Cyperus rotundus in Corchorus olitorius plots assessed as weed cover at 0.66 kg a.i/ha after 4 weeks (reference value: 20.1+/- 0.57 %); type: functional
[1] = tested on: Rottboellia cochinchinensis; assay: Herbicidal activity against Rottboellia cochinchinensis in Abelmoschus esculentus plots assessed as weed cover at 0.33 kg a.i/ha after 4 weeks (reference value: 22.6 +/- 0.49 %); type: functional
Asteraceae = assay: Herbicidal activity against Aspilia africana in Corchorus olitorius plots assessed as minor weed growth at 0.66 kg a.i/ha after 2 weeks; type: functional
Synedrella nodiflora [2] = assay: Herbicidal activity against Synedrella nodiflora in Corchorus olitorius plots assessed as major weed growth at 0.33 kg a.i/ha after 2 weeks; type: functional
Commelina diffusa = assay: Herbicidal activity against Commelina diffusa in Abelmoschus esculentus plots assessed as weed cover at 0.66 kg a.i/ha after 2 weeks (reference value: 63.5 +/- 0.29 %); type: functional
Synedrella nodiflora [3] = assay: Herbicidal activity against Synedrella nodiflora in Abelmoschus esculentus plots assessed as weed cover at 1.32 kg a.i/ha after 2 weeks (reference value: 63.5 +/- 0.29 %); type: functional
Synedrella nodiflora [4] = assay: Herbicidal activity against Synedrella nodiflora in Abelmoschus esculentus plots assessed as weed cover at 1.32 kg a.i/ha after 7 weeks (reference value: 14.7 +/- 0.46 %); type: functional
Calopogonium mucunoides [5] = assay: Herbicidal activity against Calopogonium mucunoides in Abelmoschus esculentus plots assessed as weed cover at 1.32 kg a.i/ha after 2 weeks (reference value: 63.5 +/- 0.29 %); type: functional
Calopogonium mucunoides [6] = assay: Herbicidal activity against Calopogonium mucunoides in Abelmoschus esculentus plots assessed as weed cover at 1.32 kg a.i/ha after 7 weeks (reference value: 14.7 +/- 0.46 %); type: functional
Corchorus olitorius [7] = assay: Phytotoxicity in Corchorus olitorius assessed as seed germination at 0.99 kg a.i/ha applied as solution after 7 weeks relative to untreated control; type: organism-based; conditions: in vivo, other, 1176 h
Abelmoschus esculentus [8] = assay: Phytotoxicity in Abelmoschus esculentus assessed as seedling injury at 0.33 kg a.i/ha applied as solution after 7 weeks relative to control; type: organism-based; conditions: in vivo, other, 1176 h
Calopogonium mucunoides [9] = assay: Herbicidal activity against Calopogonium mucunoides in Abelmoschus esculentus plots assessed as weed cover at 0.33 kg a.i/ha after 2 weeks (reference value: 63.5 +/- 0.29 %); type: functional
Calopogonium mucunoides [10] = assay: Herbicidal activity against Calopogonium mucunoides in Abelmoschus esculentus plots assessed as minor weed growth at 0.66 kg a.i/ha after 2 weeks; type: functional
Talinum fruticosum [11] = assay: Herbicidal activity against Talinum fruticosum in Corchorus olitorius plots assessed as weed cover at 0.99 kg a.i/ha after 4 weeks (reference value: 20.1+/- 0.57 %); type: functional
Calopogonium mucunoides [12] = assay: Herbicidal activity against Calopogonium mucunoides in Corchorus olitorius plots assessed as minor weed growth at 0.66 kg a.i/ha after 2 weeks; type: functional
Talinum fruticosum [13] = assay: Herbicidal activity against Talinum fruticosum in Corchorus olitorius plots assessed as weed cover at 0.99 kg a.i/ha after 2 weeks (reference value: 81.7 +/- 0.43 %); type: functional
Ageratum conyzoides [14] = assay: Herbicidal activity against Ageratum conyzoides in Corchorus olitorius plots assessed as weed cover at 1.32 kg a.i/ha after 4 weeks (reference value: 20.1+/- 0.57 %); type: functional
Mimosa pudica = assay: Herbicidal activity against Mimosa pudica in Abelmoschus esculentus plots assessed as weed recovery at 0.33 kg a.i/ha after 2 weeks (reference value: 60.1 +/- 0.46 %); type: functional
Abelmoschus esculentus [15] = assay: Phytotoxicity in Abelmoschus esculentus assessed as seed germination at 0.99 kg a.i/ha applied as solution after 7 weeks (reference value: 85.7 +/- 0.36 %); type: organism-based; conditions: in vivo, other, 1176 h
Synedrella nodiflora [16] = assay: Herbicidal activity against Synedrella nodiflora in Abelmoschus esculentus plots assessed as major weed growth at 0.33 kg a.i/ha after 2 weeks; type: functional
Euphorbia heterophylla [17] = assay: Herbicidal activity against Euphorbia heterophylla in Corchorus olitorius plots assessed as weed cover at 0.99 kg a.i/ha after 2 weeks (reference value: 81.7 +/- 0.43 %); type: functional
Calopogonium mucunoides [18] = assay: Herbicidal activity against Calopogonium mucunoides in Abelmoschus esculentus plots assessed as major weed growth at 1.32 kg a.i/ha after 2 weeks; type: functional
Synedrella nodiflora [19] = assay: Herbicidal activity against Synedrella nodiflora in Corchorus olitorius plots assessed as weed cover at 0.33 kg a.i/ha after 4 weeks (reference value: 20.1+/- 0.57 %); type: functional
Corchorus olitorius [20] = assay: Phytotoxicity in Corchorus olitorius assessed as seedling emergence at 0.99 kg a.i/ha treated to soil after 7 weeks (reference value: 95 +/- 0.05 %); type: organism-based; conditions: in vivo, other, 1176 h
Abelmoschus esculentus [21] = assay: Phytotoxicity in Abelmoschus esculentus assessed as root length at 0.33 kg a.i/ha treated to soil after 7 weeks (reference value: 2.9 +/- 0.45 mm); type: organism-based; conditions: in vivo, other, 1176 h
Ageratum conyzoides [22] = assay: Herbicidal activity against Ageratum conyzoides in Abelmoschus esculentus plots assessed as weed recovery at 0.33 kg a.i/ha after 2 weeks (reference value: 60.1 +/- 0.46 %); type: functional
Euphorbia heterophylla [23] = assay: Herbicidal activity against Euphorbia heterophylla in Abelmoschus esculentus plots assessed as major weed growth at 0.33 kg a.i/ha after 2 weeks; type: functional
Abelmoschus esculentus [24] = assay: Phytotoxicity in Abelmoschus esculentus assessed as shoot length at 0.99 kg a.i/ha treated to soil after 7 weeks (reference value: 8.5 +/- 0.34 mm); type: organism-based; conditions: in vivo, other, 1176 h
Euphorbia heterophylla [25] = assay: Herbicidal activity against Euphorbia heterophylla in Corchorus olitorius plots assessed as weed recovery at 0.66 kg a.i/ha after 2 weeks (reference value: 78.3 +/- 0.74 %); type: functional
Euphorbia heterophylla [26] = assay: Herbicidal activity against Euphorbia heterophylla in Abelmoschus esculentus plots assessed as weed recovery at 0.33 kg a.i/ha after 2 weeks (reference value: 60.1 +/- 0.46 %); type: functional
Synedrella nodiflora [27] = assay: Herbicidal activity against Synedrella nodiflora in Abelmoschus esculentus plots assessed as major weed growth at 0.99 kg a.i/ha after 2 weeks; type: functional
Abelmoschus esculentus [28] = assay: Phytotoxicity in Abelmoschus esculentus assessed as root length at 0.66 kg a.i/ha treated to soil after 7 weeks (reference value: 2.9 +/- 0.45 mm); type: organism-based; conditions: in vivo, other, 1176 h
Abelmoschus esculentus [29] = assay: Phytotoxicity in Abelmoschus esculentus assessed as shoot length at 1.32 kg a.i/ha applied as solution after 7 weeks (reference value: 28.7 +/- 0.34 mm); type: organism-based; conditions: in vivo, other, 1176 h
Chromolaena odorata = assay: Herbicidal activity against Chromolaena odorata in Corchorus olitorius plots assessed as weed recovery at 1.32 kg a.i/ha after 2 weeks (reference value: 78.3 +/- 0.74 %); type: functional
Synedrella nodiflora [30] = assay: Herbicidal activity against Synedrella nodiflora in Abelmoschus esculentus plots assessed as weed cover at 0.99 kg a.i/ha after 2 weeks (reference value: 63.5 +/- 0.29 %); type: functional
Abelmoschus esculentus [31] = assay: Phytotoxicity in Abelmoschus esculentus assessed as root length at 1.32 kg a.i/ha treated to soil after 7 weeks (reference value: 2.9 +/- 0.45 mm); type: organism-based; conditions: in vivo, other, 1176 h
Corchorus olitorius [32] = assay: Phytotoxicity in Corchorus olitorius assessed as root length at 0.33 kg a.i/ha applied as solution after 7 weeks (reference value: 14.3 +/- 1.06 mm); type: organism-based; conditions: in vivo, other, 1176 h

`CCC(CC)Nc1c([N+](=O)[O-])cc(C)c(C)c1[N+](=O)[O-]` [PENDIMETHALIN] was tested, and the Activity (Cyperus rotundus) was 63.3%, the Activity [1] was 53.8% and the Activity (Asteraceae) was 1 /m2. For the same compound, the Activity (Synedrella nodiflora [2]) was 31 /m2, the Activity (Commelina diffusa) was 50.8% and the Activity (Synedrella nodiflora [3]) was 45%. The Activity (Synedrella nodiflora [4]) was 82.4%, the Activity (Calopogonium mucunoides [5]) was 45% and the Activity (Calopogonium mucunoides [6]) was 82.4%. For the same compound, the Activity (Corchorus olitorius [7]) was 72.7%, the Activity (Abelmoschus esculentus [8]) was 29.9% and the Activity (Calopogonium mucunoides [9]) was 56.8%. The Activity (Calopogonium mucunoides [10]) was 1 /m2, the Activity (Talinum fruticosum [11]) was 48.3% and the Activity (Calopogonium mucunoides [12]) was 1 /m2. The Activity (Talinum fruticosum [13]) was 51.7%, the Activity (Ageratum conyzoides [14]) was 33.3% and the Activity (Mimosa pudica) was 39.2%. The Activity (Abelmoschus esculentus [15]) was 41.1%, the Activity (Synedrella nodiflora [16]) was 31 /m2 and the Activity (Euphorbia heterophylla [17]) was 51.7%. The Activity (Calopogonium mucunoides [18]) was 31 /m2, the Activity (Synedrella nodiflora [19]) was 73.3% and the Activity (Corchorus olitorius [20]) was 86.7%. For the same compound, the Activity (Abelmoschus esculentus [21]) was 3 mm, the Activity (Ageratum conyzoides [22]) was 39.2% and the Activity (Euphorbia heterophylla [23]) was 31 /m2. The Activity (Abelmoschus esculentus [24]) was 5.6 mm, the Activity (Euphorbia heterophylla [25]) was 33.3% and the Activity (Euphorbia heterophylla [26]) was 39.2%. For the same compound, the Activity (Synedrella nodiflora [27]) was 31 /m2, the Activity (Abelmoschus esculentus [28]) was 1.4 mm and the Activity (Abelmoschus esculentus [29]) was 14.6 mm. For the same compound, the Activity (Chromolaena odorata) was 13.3%, the Activity (Synedrella nodiflora [30]) was 47.9% and the Activity (Abelmoschus esculentus [31]) was 1.5 mm. The Activity (Corchorus olitorius [32]) was 3.1 mm.
